US5686486A, “4-hydroxy-benzopyran-2-ones and 4-hydroxy-cycloalkyl[b]pyran-2-ones useful to treat retroviral infections” (priority 1995, dated 1997)
Several values for one entry are separate records, joined by “and”; a condition that tells them apart may be missing. Identical values can stand only once.

What was measured:
[1] = molecular target: T1, HIV-1 protease (Human immunodeficiency virus type 1 group M subtype B, UniProt P04585); assay: biochemical; conditions: read-out: HIV-1 FITC KI
In short: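 Ki from two-fold serial inhibitor dilutions (24–48 concentrations) with 40 nM HIV-1 protease stock and 200 μM substrate stock, 90 min at room temperature; stopped with avidin beads. Reference inhibitor run in parallel; Ki by nonlinear least-squares fit.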

[2] = molecular target: T1, HIV-1 protease; assay: biochemical; conditions: for inhibition at 0.123 µM: read-out: HIV-1 Protease % Inhib, dose 0.123 uM; for inhibition at 0.37 µM: read-out: HIV-1 Protease % Inhib, dose 0.370 uM; for inhibition at 1.1 µM: read-out: HIV-1 Protease % Inhib, dose 1.100 uM; for inhibition at 3.3 µM: read-out: HIV-1 Protease % Inhib, dose 3.300 uM; for inhibition at 10 µM: read-out: HIV-1 Protease % Inhib, dose 10.000 uM; for inhibition at 30 µM: read-out: HIV-1 Protease % Inhib, dose 30.000 uM; for inhibition at 100 µM: read-out: HIV-1 Protease % Inhib, dose 100.000 uM
In short: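 Biotinylated, FITC-labeled peptide substrate (20 μl of 0.2 μM) incubated with HIV-1 protease (10 μl of 0.1 μM) and compound in 0.1 M sodium acetate pH 5.5, 1.0 M NaCl, 0.05% NP-40, 1 h, room temperature, dark. Streptavidin beads then capture uncleaved substrate; filtered labeled product read by fluorescence, giving percent inhibition.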

Row | SMILES | Ki [1] | inhibition at 0.123 µM [2] [%] | inhibition at 0.37 µM [2] [%] | inhibition at 1.1 µM [2] [%] | inhibition at 3.3 µM [2] [%] | inhibition at 10 µM [2] [%] | inhibition at 30 µM [2] [%] | inhibition at 1 µM ([2]; read-out: HIV-1 Protease % Inhib, dose 1.000 uM) [%] | inhibition at 100 µM [2] [%] | inhibition at 0.41 µM ([2]; read-out: HIV-1 Protease % Inhib, dose 0.410 uM) [%] | inhibition at 1.23 µM ([2]; read-out: HIV-1 Protease % Inhib, dose 1.230 uM) [%] | inhibition at 3.7 µM ([2]; read-out: HIV-1 Protease % Inhib, dose 3.700 uM) [%] | inhibition at 11 µM ([2]; read-out: HIV-1 Protease % Inhib, dose 11.000 uM) [%] | inhibition at 33 µM ([2]; read-out: HIV-1 Protease % Inhib, dose 33.000 uM) [%]
1 | CCCC(c1cccc(N)c1)c1c(O)c2c(oc1=O)CCCCCC2 (centres unmarked) [Example 376, 3-[1-(3-Aminophenyl)butyl]-5,6,7,8,9,10-hexahydro4-hydroxy-2H-cycloocta[b]pyran-2-one] | 195 nM | 10.6 | 33.7 | 75.3 | 96.5 | 102 | 103 |  |  |  |  |  |  | 
2 | O=c1oc2c(c(O)c1C(c1cccc(NS(=O)(=O)c3cc(Cl)cc(Cl)c3O)c1)C1CC1)CCCCCC2 (centres unmarked) [Example 284] | 12.2 nM | 37.5 | 77 | 99.8 | 107 | 107 | 104 |  |  |  |  |  |  | 
3 | CC(C)C(c1cccc(NS(=O)(=O)c2ccc(Cl)cc2)c1)c1c(O)c2c(oc1=O)CCCCCC2 (centres unmarked) [Example 373, 4-Chloro-N-[3-[1-(6,7,8,9,10-hexahydro-4-hydroxy-2-oxo-2H-cycloocta[b]pyran-3-yl)-2-methylpropyl]phenyl]-benzenesulfonamide] | 18.3 nM | 31.8 | 68.9 | 87 | 97.1 | 102 | 105 |  |  |  |  |  |  | 
4 | Cc1c(Cl)cccc1S(=O)(=O)Nc1cccc(C(c2c(O)c3c(oc2=O)CCCCCC3)C2CC2)c1 (centres unmarked) [Example 311, 3-Chloro-N-[3-[cyclopropyl(5,6,7,8,9,10-hexahydro-4-hydroxy-2-oxo-2H-cycloocta[b]pyran-3-yl)methyl]phenyl]-2-methyl-benzenesulfonamide] | 6.33 nM | 20.8 | 71.2 | 86.4 | 92 | 99.5 | 99.5 |  |  |  |  |  |  | 
5 | O=c1oc2c(c(O)c1[C@H](c1cccc(NS(=O)(=O)c3cccc4cccnc34)c1)C1CC1)CCCCCC2 [Example 256, (-)-N-[3-[Cyclopropyl(5,6,7,8,9,10-hexahydro-4-hydroxy-2-oxo-2H-cycloocta[b]pyran-3-yl)methyl]phenyl]-8-quinolinesulfonamide] | 0.42 nM | 82.5 | 91.3 | 99 | 95 | 101 | 96.1 |  |  |  |  |  |  | 
6 | Cc1cncc(S(=O)(=O)Nc2cccc(C(c3c(O)c4c(oc3=O)CCCCCC4)C3CC3)c2)c1 (centres unmarked) [Example 315, N-[3-[Cyclopropyl(5,6,7,8,9,10-hexahydro4-hydroxy-2-oxo-2H-cycloocta[b]pyran-3-yl)methyl]phenyl]-5-methyl-3-pyridinesulfonamide] | 2.58 nM | 80.7 | 94.7 | 91.9 | 95.2 | 86.7 | 81.4 |  |  |  |  |  |  | 
7 | O=c1oc2c(c(O)c1C(c1cccc(NS(=O)(=O)c3cccc(S(=O)(=O)NCc4ccccc4)c3)c1)C1CC1)CCCCCC2 (centres unmarked) [Example 412, N-[3-[Cyclopropyl(5,6,7,8,9,10-hexahydro-4-hydroxy-2-oxo-2H-cycloocta[b]pyran-3-yl)-methyl]phenyl]-(3-N-benzylbenzenesulfonyl)benzenesulfonamide] | 9.2 nM | 37.8 | 69.2 | 92 | 102 | 99 | 102 |  |  |  |  |  |  | 
8 | CCC(c1ccccc1)c1c(O)c2c(oc1=O)CCC2 (centres unmarked) [Example 111, 6,7-Dihydro-4-hydroxy-3-(1-phenylpropyl)-cyclopenta[b]pyran-2(5H)-one] | 700 nM |  |  |  |  | 94.3 |  | 36.5 | 101 |  |  |  |  | 
9 | O=c1oc2c(c(O)c1C(c1cccc(NS(=O)(=O)c3cc(S(=O)(=O)c4ccccc4)cs3)c1)C1CC1)CCCCCC2 (centres unmarked) [Example 298, N-[3-[Cyclopropyl(5,6,7,8,9,10-hexahydro-4-hydroxy-2-oxo-2H-cycloocta[b]pyran-3-yl)methyl]phenyl]4-(phenylsulfonyl)-2-thiophenesulfonamide] | 2.5 nM | 67.4 | 84.6 | 94.6 | 97.5 | 101 | 100 |  |  |  |  |  |  | 
10 | O=c1oc2c(c(O)c1C(c1cccc(NS(=O)(=O)CCCCl)c1)C1CC1)CCCCCC2 (centres unmarked) [Example 331, 3-Chloro-N-[3-[cyclopropyl(5,6,7,8,9,10-hexahydro-4-hydroxy-2-oxo-2H-cycloocta[b]pyran-3-yl)methyl]phenyl]-1-propanesulfonamide] | 4.8 nM | 66.4 | 86.9 | 99.2 | 119 | 121 | 105 |  |  |  |  |  |  | 
11 | CC(C)(C)OC(=O)NCCC(=O)Nc1cccc(C(c2c(O)c3c(oc2=O)CCCCC3)C2CC2)c1 (centres unmarked) [Example 214, Carbamic acid. [3-[[3-[cyclopropyl(2,5,6,7,8,9-hexahydro-4-hydroxy-2-oxocyclohepta[b]pyran-3-yl)methyl]phenyl]amino]-3-oxopropyl]-, 1,1-dimethylethyl ester] | 19.3 nM | 18.7 | 54 | 74.1 | 88.6 | 95.2 | 96.2 |  |  |  |  |  |  | 
12 | O=c1oc2c(c(O)c1C(c1cccc(NS(=O)(=O)c3ccc(-c4ccccn4)s3)c1)C1CC1)CCCCCC2 (centres unmarked) [Example 310, N-[3-[Cyclopropyl(5,6,7,8,9,10-hexahydro4-hydroxy-2-oxo-2H-cycloocta[b]pyran-3-yl)methyl]phenyl]-5-(2-pyridinyl)-2-thiophenesulfonamide] | 2.37 nM | 46.2 | 86.2 | 94.9 | 99 | 103 | 102 |  |  |  |  |  |  | 
13 | CC1(C)C2CCC1(CS(=O)(=O)Nc1cccc(C(c3c(O)c4c(oc3=O)CCCCCC4)C3CC3)c1)C(=O)C2 (centres unmarked) [Example 333, N-[3-[Cyclopropyl(5,6,7,8,9,10-hexahydro-4-hydroxy-2-oxo-2H-cycloocta[b]pyran-3-yl)methyl]phenyl]-7,7-dimethyl-2-oxo-bicyclo[2.2.1]heptane-1-methanesulfonamide] | 104 nM |  | 28.3 | 62.2 | 82 | 102 | 110 |  |  |  |  |  |  | 
14 | O=c1oc2c(c(O)c1C(c1cccc(NS(=O)(=O)c3cc(Br)c(Br)s3)c1)C1CC1)CCCCCC2 (centres unmarked) [Example 303, 4,5-Dibromo-N-[3-[cyclopropyl(5,6,7,8,9,10-hexahydro-4-hydroxy-2-oxo-2H-cycloocta[b]pyran-3-yl)methyl]phenyl]-2-thiophenesulfonamide] | 5 nM | 67.4 | 96.5 | 97.7 | 109 | 110 | 98 |  |  |  |  |  |  | 
15 | Cc1sc(C(c2c(O)c3c(oc2=O)CCCCCC3)C2CC2)cc1CO (centres unmarked) [Example 394] | 6.04 nM | 72.7 | 102 | 109 | 115 | 120 | 123 |  |  |  |  |  |  | 
16 | O=c1oc2c(c(O)c1C(c1cccc(NS(=O)(=O)c3cccnc3)c1)C1CC1)CCCCCC2 (centres unmarked) [Example 314, N-[3-[Cyclopropyl(5,6,7,8,9,10-hexahydro-4-hydroxy-2-oxo-2H-cylcloocta[b]pyran-3-yl)methyl]phenyl]-3-pyridinesulfonamide] | 2.31 nM and 2.01 nM | 79.5 | 97.7 | 108 | 109 | 102 | 97.1 |  |  |  |  |  |  | 
17 | O=c1oc2c(c(O)c1[C@H](c1cccc(NS(=O)(=O)c3ccc(F)cc3)c1)C1CC1)CCCCCC2 [Example 252, (-)-N-[3-[Cyclopropyl(5,6,7,8,9,10-hexahydro4-hydroxy-2-oxo-2H-cycloocta[b]pyran-3-yl)methyl]phenyl]-4-fluoro-benzenesulfonamide] | 1.6 nM and 1.1 nM | 100 | 108 | 111 | 112 | 116 | 109 |  |  |  |  |  |  | 
18 | CCC(c1ccccc1)c1c(O)c2c(oc1=O)C(CC1CC1)CCC2 (centres unmarked) [Example 124, 8-Cyclopropylmethyl-4-hydroxy-3-(1-phenyl-propyl)-5,6,7,8-tetrahydro-chromen-2-one] | 1040 nM |  |  |  |  |  |  |  | 89.4 | < 10 | 32.4 | 65.6 | 81.6 | 88.2
